Experimental data taken from PubChem BioAssay (NCI).
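Five concentrations, 48 hours, 96-well plates. TGI: concentration producing complete growth inhibition.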

Assays:
Experiment in all cases: NCI tumour cell line growth inhibition, 48 h
[1] = system: HOP-62 NSCLC
[2] = system: A549 NSCLC
[3] = system: SF-295 CNS
[4] = system: DMS 114 small cell lung
[5] = system: SK-MEL-5 melanoma
[6] = system: NCI-H226 lung
[7] = system: OVCAR-5 ovarian
[8] = system: NCI-H23 lung
[9] = system: SK-OV-3 ovarian
[10] = system: SR leukemia
[11] = system: OVCAR-4 ovarian
[12] = system: ACHN renal
[13] = system: SW-620 colon
[14] = system: MOLT-4 leukemia
[15] = system: DMS 273 small cell lung
[16] = system: U251 CNS
[17] = system: MALME-3M melanoma
[18] = system: SNB-19 CNS
[19] = system: HCC-2998 colon
[20] = system: OVCAR-3 ovarian
[21] = system: NCI-H460 lung
[22] = system: SK-MEL-28 melanoma
[23] = system: UACC-62 melanoma
[24] = system: HCT-15 colon
[25] = system: KM12 colon
[26] = system: RXF 393 renal
[27] = system: LOX IMVI melanoma
[28] = system: TK-10 renal
[29] = system: LXFL 529 NSCLC
[30] = system: UO-31 renal
[31] = system: OVCAR-8 ovarian
[32] = system: SN12C renal
[33] = system: SF-539 CNS
[34] = system: HL-60(TB) leukemia
[35] = system: SNB-75 CNS
[36] = system: CCRF-CEM leukemia
[37] = system: CAKI-1 renal
[38] = system: IGROV1 ovarian
[39] = system: HOP-92 NSCLC
[40] = system: NCI-H522 lung
[41] = system: K-562 leukemia
[42] = system: 786-0 renal
[43] = system: UACC-257 melanoma
[44] = system: XF 498 CNS
[45] = system: KM20L2 colon
[46] = system: SK-MEL-2 melanoma
[47] = system: HT29 colon
[48] = system: SNB-78 CNS
[49] = system: RXF-631 renal
[50] = system: RPMI-8226 leukemia
[51] = system: HOP-18 NSCLC
[52] = system: M19-MEL melanoma
[53] = system: HCT-116 colon
[54] = system: EKVX NSCLC
[55] = system: COLO 205 colon
[56] = system: M14 melanoma
[57] = system: DLD-1 colon
[58] = system: SF-268 CNS
[59] = system: A498 renal

SMILES: CCOC(=O)C1Cc2c(ccc(OC)c2OC)C(=O)C1N (configuration not stated)
- TGI [1]: > 100 µM
- TGI [2]: > 100 µM
- TGI [3]: > 100 µM
- TGI [4]: > 100 µM
- TGI [5]: > 100 µM
- TGI [6]: > 100 µM
- TGI [7]: > 100 µM
- TGI [8]: > 100 µM
- TGI [9]: > 100 µM
- TGI [10]: > 100 µM
- TGI [11]: > 100 µM
- TGI [12]: > 100 µM
- TGI [13]: > 100 µM
- TGI [14]: > 100 µM
- TGI [15]: > 100 µM
- TGI [16]: > 100 µM
- TGI [17]: > 100 µM
- TGI [18]: > 100 µM
- TGI [19]: > 100 µM
- TGI [20]: > 100 µM
- TGI [21]: > 100 µM
- TGI [22]: > 100 µM
- TGI [23]: > 100 µM
- TGI [24]: > 100 µM
- TGI [25]: > 100 µM
- TGI [26]: > 100 µM
- TGI [27]: > 100 µM
- TGI [28]: > 100 µM
- TGI [29]: > 100 µM
- TGI [30]: > 100 µM
- TGI [31]: > 100 µM
- TGI [32]: > 100 µM
- TGI [33]: > 100 µM
- TGI [34]: > 100 µM
- TGI [35]: > 100 µM
- TGI [36]: > 100 µM
- TGI [37]: > 100 µM
- TGI [38]: > 100 µM
- TGI [39]: > 100 µM
- TGI [40]: > 100 µM
- TGI [41]: > 100 µM
- TGI [42]: > 100 µM
- TGI [43]: > 100 µM
- TGI [44]: > 100 µM
- TGI [45]: > 100 µM
- TGI [46]: > 100 µM
- TGI [47]: > 100 µM
- TGI [48]: > 100 µM
- TGI [49]: > 100 µM
- TGI [50]: > 100 µM
- TGI [51]: > 100 µM
- TGI [52]: > 100 µM
- TGI [53]: > 100 µM
- TGI [54]: 36.1 µM
- TGI [55]: > 100 µM
- TGI [56]: > 100 µM
- TGI [57]: > 100 µM

SMILES: CCCCCCCC[N+](C)(C)Cc1ccc(C[N+](C)(C)CCCCCCCC)cc1
- TGI [1]: > 100 µM
- TGI [2]: > 100 µM
- TGI [3]: > 100 µM
- TGI [4]: > 100 µM
- TGI [5]: > 100 µM
- TGI [6]: > 100 µM
- TGI [7]: > 100 µM
- TGI [8]: 47 µM
- TGI [9]: > 100 µM
- TGI [58]: > 100 µM
- TGI [10]: > 100 µM
- TGI [11]: > 100 µM
- TGI [12]: > 100 µM
- TGI [13]: > 100 µM
- TGI [14]: > 100 µM
- TGI [15]: 36.5 µM
- TGI [16]: > 100 µM
- TGI [17]: > 100 µM
- TGI [18]: > 100 µM
- TGI [19]: > 100 µM
- TGI [20]: > 100 µM
- TGI [21]: > 100 µM
- TGI [22]: > 100 µM
- TGI [23]: > 100 µM
- TGI [24]: > 100 µM
- TGI [25]: > 100 µM
- TGI [26]: > 100 µM
- TGI [27]: > 100 µM
- TGI [28]: > 100 µM
- TGI [29]: > 100 µM
- TGI [30]: > 100 µM
- TGI [31]: > 100 µM
- TGI [32]: > 100 µM
- TGI [59]: > 100 µM
- TGI [34]: 97.6 µM
- TGI [35]: > 100 µM
- TGI [36]: > 100 µM
- TGI [37]: > 100 µM
- TGI [38]: 65.1 µM
- TGI [39]: 88.1 µM
- TGI [40]: > 100 µM
- TGI [41]: > 100 µM
- TGI [42]: > 100 µM
- TGI [43]: > 100 µM
- TGI [45]: > 100 µM
- TGI [46]: > 100 µM
- TGI [47]: > 100 µM
- TGI [48]: > 100 µM
- TGI [49]: > 100 µM
- TGI [50]: > 100 µM
- TGI [51]: > 100 µM
- TGI [52]: > 100 µM
- TGI [53]: > 100 µM
- TGI [54]: > 100 µM
- TGI [55]: 3.48 µM
- TGI [56]: > 100 µM
- TGI [57]: > 100 µM

SMILES: CCCC(OCC)(OCC)OCC
- TGI [1]: > 100 µM
- TGI [2]: > 100 µM
- TGI [3]: > 100 µM
- TGI [4]: > 100 µM
- TGI [5]: > 100 µM
- TGI [6]: > 100 µM
- TGI [7]: > 100 µM
- TGI [8]: > 100 µM
- TGI [9]: > 100 µM
- TGI [58]: > 100 µM
- TGI [10]: > 100 µM
- TGI [11]: > 100 µM
- TGI [12]: > 100 µM
- TGI [14]: > 100 µM
- TGI [15]: > 100 µM
- TGI [16]: > 100 µM
- TGI [17]: > 100 µM
- TGI [18]: > 100 µM
- TGI [19]: > 100 µM
- TGI [20]: > 100 µM
- TGI [21]: > 100 µM
- TGI [22]: > 100 µM
- TGI [23]: > 100 µM
- TGI [24]: > 100 µM
- TGI [25]: > 100 µM
- TGI [26]: > 100 µM
- TGI [27]: > 100 µM
- TGI [28]: > 100 µM
- TGI [29]: > 100 µM
- TGI [30]: > 100 µM
- TGI [31]: > 100 µM
- TGI [32]: > 100 µM
- TGI [59]: > 100 µM
- TGI [33]: > 100 µM
- TGI [34]: > 100 µM
- TGI [35]: > 100 µM
- TGI [36]: > 100 µM
- TGI [37]: > 100 µM
- TGI [38]: > 100 µM
- TGI [39]: > 100 µM
- TGI [40]: > 100 µM
- TGI [41]: > 100 µM
- TGI [42]: > 100 µM
- TGI [43]: > 100 µM
- TGI [44]: > 100 µM
- TGI [45]: > 100 µM
- TGI [46]: > 100 µM
- TGI [47]: > 100 µM
- TGI [48]: > 100 µM
- TGI [49]: > 100 µM
- TGI [50]: > 100 µM
- TGI [51]: > 100 µM
- TGI [52]: > 100 µM
- TGI [53]: > 100 µM
- TGI [54]: > 100 µM
- TGI [55]: > 100 µM
- TGI [56]: > 100 µM
- TGI [57]: > 100 µM
